The source of these data is patent US20260076346A1, “IMMUNODEFICIENT NON-HUMAN ANIMALS FOR ASSESSING DRUG METABOLISM AND TOXICITY” (UNIVERSITY OF DUNDEE, priority 2022, published 2026).

Each structure is given as a SMILES string. Entries after “also recorded” stand apart in the source; their conditions may differ.

Test [1] has as its system 5555 murine melanoma cell line. Conditions: reported by Hirata et al.; cited from earlier work.
Test [2] concerns 5555 murine melanoma cell line. Conditions: reported by Hirata et al.; cited from earlier work. The source holds these as a separate data set.
Test [3] concerns 5555 murine melanoma cells. As to the kind of experiment: Syngeneic graft of 5555 murine melanoma cells in 8HUM mice, tumour volume under daily oral treatment. Conditions: adult female 8HUM mice, n=5, 31.5 mg/kg daily p.o. from day 5 after implantation, study ended day 15, versus vehicle. The test is classed as in vivo, mouse. The method, then:
FIG. 1: A. Xenograft of BRAFV600E human melanoma A375 cells in Rag2^null/8HUM mice (top). Bottom-no growth of A375 cells in immunocompetent 8HUM mice. B. Growth of a murine melanoma syngeneic graft in 8HUM mice and response to dabrafenib treatment. Adult female 8HUM_Rag2−/− mice (18-21w, n=5) were injected subcutaneously (s.c.) in one flank with 3.5×10^6 5555 murine melanoma cells, in 100 μl ECM diluted 1:1 with DMEM. […] Tumour measurements were taken three times weekly, then daily as required, and tumour volume calculated as detailed in Methods section. […]
Data analysis: Dependencies of calculated tumour volumes versus time were analysed by non-linear regression using exponential growth and exponential decay functions (Prism 5 software, Graphpad, US). […]
A375 human melanoma cells (ATCC: CRL-1619; RRID: CVCL_UD29) and 5555 murine melanoma cells (19-21) were grown as directed, with the latter subject to commercial murine pathogen testing (IDEXX Bioanalytics GmbH, Germany) and both to in-house mycoplasma testing (MycoAlert Mycoplasma Detection kit, Lonza Rockland, USA) before use. Passage number was recorded for each study. […]
Once established, tumours were measured twice in two dimensions (maximum breadth and length) using digital callipers, by the same person to avoid interindividual variation. […]

The subject of test [4] is BRAFV600E human melanoma A375 cells. As to the kind of experiment: A375 human melanoma xenograft in 8HUM_Rag2-/- mice, tumour volume under daily oral treatment. The test is classed as in vivo. Conditions: adult female 8HUM_Rag2-/- mice. In general terms: Xenograft models place foreign cells or tissue in a host animal.
Procedure: Adult female 8HUM mice (11-19w, n=3) were injected s.c. in both flanks with 4.4×10^6 A375 melanoma cells, in 100 μl DMEM. Tumours were allowed to establish and on day 28 after implantation daily treatment was commenced with either vehicle (0.5% (w/v) hydroxypropylmethylcellulose, 0.2% (v/v) Tween-80; closed circles) or dabrafenib (in vehicle, open circles) suspended at 6.3 mg/ml and administered at 5 ml/kg, such that dabrafenib dose administered was 31.5 mg/kg (arrow). Tumour measurements were taken three times weekly, then daily as required, and total volume of tumours on both flanks was calculated as detailed in Methods section.
Adult female (>8<22 weeks) mice were randomly allocated into control or experimental groups and allowed to adapt to their social setting for 7d before study start. Cages were adjacent to each other on the same level of a ventilated rack, in the same room, for the study duration.
Data analysis: Dependencies of calculated tumour volumes versus time were analysed by non-linear regression using exponential growth and exponential decay functions (Prism 5 software, Graphpad, US). Rate constants in both functions were constrained to positive values to maintain consistency with the function name. Values for plateau parameters in exponential decay function were set to zero.

`CCCS(=O)(=O)Nc1ccc(F)c(C(=O)c2c[nH]c3ncc(Cl)cc23)c1F` [PLX4720]: the “sensitivity of 5555 cell line in vitro” value in test [1] is “sensitive”. For the same compound, in test [2], the “sensitivity of 5555 cell line in vivo” value is recorded as “refractory”.

As to `CC(C)(C)c1nc(-c2cccc(NS(=O)(=O)c3c(F)cccc3F)c2F)c(-c2ccnc(N)n2)s1` [dabrafenib], the entries for the “tumour growth / mean tumour volume of 5555 (GM5555) murine melanoma syngeneic graft” value in test [3] and in test [3] (listed as Dabrafenib) were “became almost undetectable; also recorded: exquisitely sensitive” and “successfully inhibited”, respectively. Besides, the “fit of tumour volume versus time by non-linear regression (exponential growth or decay)” value in test [4] (A375 xenograft, 31.5 mg/kg daily p.o. d28-d35, vehicle group followed exponential growth) is on record as “follows exponential decay dependency”. The “total mean tumour volume of A375 xenograft (both flanks)” value in test [4] (n=3, 31.5 mg/kg daily p.o. from d28 to d35, versus vehicle) is on record as “shrank in size”.
